Test results: patent US3974140A, “Ureidoacetamido-penicillins” (Bayer Aktiengesellschaft, priority 1970, dated 1976)

Experiments:
Test in all cases: MIC, liquid medium test tube series dilution test
E. coli 14 = type: cell-based; settings: E. coli 14, 24 hours, 37°C
Protocol: (§1) The chemotherapeutic activity of the new penicillins was tested in vivo and in vitro. The in vitro inhibition values (MIC = minimum inhibition concentration (see Tables 1 and 2) were determined in a liquid medium in the test tube series dilution test, with readings being taken after 24 hours' incubation at 37°C. The MIC is indicated by the non-turbid test tube in the dilution series. A complete medium of the following composition was used as the nutrient medium:
(§2) The figures quoted in the Examples for the effectiveness against certain bacteria (units/ml) are minimum inhibitory concentrations in the test tube series dilution test after 24 hours' incubation.

E. coli 183/58 = type: cell-based; settings: E. coli 183/58, 24 hours, 37°C
Protocol: as §1, §2

E. coli A 261 = type: cell-based; settings: E. coli A 261, 24 hours, 37°C
Protocol: as §1, §2

E. coli C 165 = type: cell-based; settings: E. coli C 165, 24 hours, 37°C
Protocol: as §1, §2

Klebsiella 63 = type: cell-based; settings: Klebsiella 63, 24 hours, 37°C
Protocol: as §1, §2

Klebsiella K 10 = type: cell-based; settings: Klebsiella K 10, 24 hours, 37°C
Protocol: as §1, §2

[1] = system: Streptoc. faec. ATCC 9790; type: cell-based; settings: Strep. faec. (Enterococcus) ATCC 9790, 24 hours, 37°C
Protocol: as §1, §2

Proteus vulg. 1017 = type: cell-based, Proteus vulgaris; settings: Proteus vulg. 1017, 24 hours, 37°C
Protocol: as §1, §2

Proteus vulg. 3400 = type: cell-based, Proteus vulgaris; settings: Proteus vulg. 3400, 24 hours, 37°C
Protocol: as §1, §2

Psdm. aerug. Bonn = type: cell-based, Pseudomonas aerug.; settings: 24 hours, 37°C
Protocol: as §1, §2

Psdm. aerug. Walter = type: cell-based, Pseudomonas aerug.; settings: 24 hours, 37°C
Protocol: as §1, §2

Staph. aureus 133 = type: cell-based, Staphylococcus aureus; settings: Staph. aureus 133, 24 hours, 37°C
Protocol: as §1, §2

MIC (E. coli 14) | MIC (E. coli 183/58) | MIC (E. coli A 261) [units/ml] | MIC (E. coli C 165) | MIC (Klebsiella 63) | MIC (Klebsiella K 10) | MIC [1] | MIC (Proteus vulg. 1017) | MIC (Proteus vulg. 3400) | MIC (Psdm. aerug. Bonn) | MIC (Psdm. aerug. Walter) | MIC (Staph. aureus 133) | Compound
0.8 units/ml | 1.6 units/ml | 50 | 3.1 units/ml | 25 units/ml | 12.5 units/ml | 12.5 units/ml | 3.1 units/ml | 6.25 units/ml | 12.5 units/ml | 12.5 units/ml | < 0.8 units/ml | CN(C(=O)N[C@@H](C(=O)N[C@@H]1C(=O)N2[C@@H]1SC(C)(C)[C@@H]2C(=O)O)c1ccccc1)C(=O)c1ccccc1[N+](=O)[O-] [Example 140, Sodium D(-)-α-(3-o-nitrobenzoyl-3-methyl-ureido)-benzylpenicillin]
12.5 units/ml | 100 units/ml | > 400 | 100 units/ml | 50 units/ml | 25 units/ml | 50 units/ml | 200 units/ml | 400 units/ml | 200 units/ml | 200 units/ml | < 0.8 units/ml | CC(=O)N(C(=O)N[C@@H](C(=O)N[C@@H]1C(=O)N2[C@@H]1SC(C)(C)[C@@H]2C(=O)O)c1ccccc1)c1ccccc1 [Example 130, Sodium D(-)-α-(3-acetyl-3-phenyl-ureido)-benzylpenicillin]
1.56 units/ml | 3.12 units/ml | 400 | 6.25 units/ml | 25 units/ml | 50 units/ml | 50 units/ml | 12.5 units/ml | 6.25 units/ml | 25 units/ml | 50 units/ml | < 0.78 units/ml | CN(C(=O)CCCCl)C(=O)N[C@@H](C(=O)N[C@@H]1C(=O)N2[C@@H]1SC(C)(C)[C@@H]2C(=O)O)c1ccccc1 [Example 88, Sodium D(-)-α-(3-γ-chlorobutyryl-3-methyl-ureido)-benzylpenicillin]
100 units/ml | > 400 units/ml | > 400 | > 400 units/ml | > 400 units/ml | > 400 units/ml | > 400 units/ml | > 400 units/ml | > 400 units/ml | > 400 units/ml | > 400 units/ml | 25 units/ml | CCCCCCCCCCCCCCCCN(C(C)=O)C(=O)N[C@@H](C(=O)N[C@@H]1C(=O)N2[C@@H]1SC(C)(C)[C@@H]2C(=O)O)c1ccccc1 [Example 74, Sodium D(-)-α-(3-acetyl-3-hexadecyl-ureido)-benzylpenicillin]

Second part, the molecule before the results:

Compound | MIC (E. coli 14) | MIC (E. coli 183/58) | MIC (E. coli A 261) [units/ml] | MIC (E. coli C 165) | MIC (Klebsiella 63) | MIC (Klebsiella K 10) | MIC [1] | MIC (Proteus vulg. 1017) | MIC (Proteus vulg. 3400) | MIC (Psdm. aerug. Bonn) | MIC (Psdm. aerug. Walter) | MIC (Staph. aureus 133)
Cc1ccc(C(NC(=O)N(C)C(=O)c2ccccc2F)C(=O)N[C@@H]2C(=O)N3[C@@H]2SC(C)(C)[C@@H]3C(=O)O)cc1 (stereo partly drawn) [Example 44, Sodium α-(3-o-fluorobenzoyl-3-methyl-ureido)-α-p-tolyl-methylpenicillin] | 6.25 units/ml | 25 units/ml | 400 | 25 units/ml | 50 units/ml | 50 units/ml | 100 units/ml | 50 units/ml | 25 units/ml | 50 units/ml | 50 units/ml | 1.6 units/ml
C=CCN(C(C)=O)C(=O)NC(C(=O)N[C@@H]1C(=O)N2[C@@H]1SC(C)(C)[C@@H]2C(=O)O)c1cccs1 (stereo partly drawn) [Example 17, Sodium D,L-α-(3-acetyl-3-allyl-ureido)-2-thienylmethylpenicillin] | 4-20 units/ml | 20-100 units/ml | > 500 | 20-100 units/ml | 20-100 units/ml | 20-100 units/ml | 20-100 units/ml | > 500 units/ml | 100-500 units/ml | 100-500 units/ml | 100-500 units/ml | < 0.8 units/ml
CN(C(=O)CCCCl)C(=O)N[C@@H](C(=O)N[C@@H]1C(=O)N2[C@@H]1SC(C)(C)[C@@H]2C(=O)O)c1ccccc1 [Example 24, Sodium D(-)-α-(3-γ-chlorobutyryl-3-methyl-ureido)-benzylpenicillin] | 6.3 units/ml | 25 units/ml | > 400 | 25 units/ml | 100 units/ml | 50 units/ml | 200 units/ml | 100 units/ml | 50 units/ml | 100 units/ml | 100 units/ml | ~ 1.6 units/ml
CN(C(=O)NC(C(=O)N[C@@H]1C(=O)N2[C@@H]1SC(C)(C)[C@@H]2C(=O)O)c1c(Cl)cccc1Cl)C(=O)c1ccccc1 (stereo partly drawn) [Example 32, Sodium α-(3-benzoyl-3-methyl-ureido)-2,6-dichlorobenzyl-penicillin] | approx. 20 units/ml | 20-100 units/ml | > 500 | 20-100 units/ml | approx. 100 units/ml | 100-500 units/ml | 100-500 units/ml | approx. 100 units/ml | 100-500 units/ml | 100-500 units/ml | 100-500 units/ml | ~0.8 units/ml
COC(=O)N(C)C(=O)NC(C(=O)N[C@@H]1C(=O)N2[C@@H]1SC(C)(C)[C@@H]2C(=O)O)c1ccc(OC)cc1 (stereo partly drawn) [Example 18, Sodium D,L-α-(3-methoxycarbonyl-3-methyl-ureido)-4-methoxybenzylpenicillin] | 4-20 units/ml | 20-100 units/ml | > 500 | 20-100 units/ml | 20-100 units/ml | 20-100 units/ml | ~ 100 units/ml | 100-500 units/ml | 100-500 units/ml | 100-500 units/ml | 100-500 units/ml | 0.8-4 units/ml
COC(=O)N(C)C(=O)NC(C(=O)N[C@@H]1C(=O)N2[C@@H]1SC(C)(C)[C@@H]2C(=O)O)c1c(Cl)cccc1Cl (stereo partly drawn) [Example 9, Sodium D,L-α-(3-methoxycarbonyl-3-methyl-ureido)-2,6-dichlorobenzylpenicillin] | 20-100 units/ml | 100-500 units/ml | > 500 | 100-500 units/ml | > 500 units/ml | > 500 units/ml | ~ 500 units/ml | > 500 units/ml | > 500 units/ml | > 500 units/ml | > 500 units/ml | 0.8-4 units/ml
